# Values joined by “and” are separate entries in the source; they are usually repeats but may differ in a detail not shown here. Equal entries are not always repeated.
# How the values were obtained:
# [1] = LogD determination (PBS/n-octanol); type: physicochemical; details: 1:1 0.1M PBS/n-octanol, mean of duplicate, 37°C
# Description: LogD determination. Test compounds were diluted by adding 12 μL of 1 mM DMSO stocks to 1,188 μL of 1:1 0.1M PBS/n-octanol in duplicate. Samples were vortexed, shaken at 600 rpm for 3 hours at 37°C. Samples (100 μL) of each phase layer were extracted in 3 volumes of acetonitrile for 15 minutes, centrifuged at 10,000g for 10 minutes, and then analyzed by LC-MS. The ratio of concentrations measured in the organic and aqueous phases was log10 transformed to determine the logD.
# [2] = test system: hyperalgesia induced by morphine withdrawal; test: Reversal of hyperalgesia due to morphine withdrawal, von Frey SUDO; type: in vivo, C57BL/6J mice
# Excerpt: We next tested if CP612 reverses hyperalgesia induced by withdrawal from repeated administration of morphine in male and female C57BL/6J mice. Since the pain thresholds of mice receiving repeated administration of saline were not affected by treatment with vehicle or CP612 injection (Figure 6), mice in this experiment were only treated with morphine. […] Both male and female mice that received vehicle continued to show hyperalgesia up to 4 weeks after the last injection of morphine.
# PKCε = biological target: T1, PKCε (Homo sapiens, UniProt Q02156); test: PKCε activity with increasing ATP and CP612 (ATP competition); type: biochemical; set-up: His; AVI; made in house; host or cells: Sf9 cells; details: for Kinase activity (% control): PKCε, log [CP612]
# T1 sequence (Q02156 1-737): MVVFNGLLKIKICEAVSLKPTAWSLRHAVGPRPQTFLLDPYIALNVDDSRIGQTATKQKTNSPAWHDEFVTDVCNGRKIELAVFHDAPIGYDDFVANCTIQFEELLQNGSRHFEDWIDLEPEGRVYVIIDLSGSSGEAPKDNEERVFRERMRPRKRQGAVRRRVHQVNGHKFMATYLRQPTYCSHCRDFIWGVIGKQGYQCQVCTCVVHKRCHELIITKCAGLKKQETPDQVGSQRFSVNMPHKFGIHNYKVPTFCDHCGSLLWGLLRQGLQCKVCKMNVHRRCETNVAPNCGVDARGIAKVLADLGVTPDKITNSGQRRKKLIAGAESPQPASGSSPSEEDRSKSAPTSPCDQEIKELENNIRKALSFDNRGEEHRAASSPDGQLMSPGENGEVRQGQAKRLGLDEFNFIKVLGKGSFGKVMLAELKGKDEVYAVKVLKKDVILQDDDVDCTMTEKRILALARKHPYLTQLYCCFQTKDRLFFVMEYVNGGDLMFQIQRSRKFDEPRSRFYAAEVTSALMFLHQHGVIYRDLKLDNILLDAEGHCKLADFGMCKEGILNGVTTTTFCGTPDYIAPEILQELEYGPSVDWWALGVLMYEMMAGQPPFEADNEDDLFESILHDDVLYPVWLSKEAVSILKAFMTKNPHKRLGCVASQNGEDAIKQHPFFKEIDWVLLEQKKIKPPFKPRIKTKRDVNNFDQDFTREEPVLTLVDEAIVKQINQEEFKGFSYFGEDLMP
# Description: Therefore, we assayed PKCε activity with increasing concentrations of ATP and in the presence of increasing concentrations of CP612.
# Kinase assays. CP612 was assayed against His-AVI–tagged human PKCε (1 nM) produced in Sf9 cells, and ROCK1 (Carna Biosciences; 5 nM) using the Lance-FRET kinase assay system (PerkinElmer Revvity). Other human recombinant PKCs (SignalChem Biotech) were assayed in triplicate at the following concentrations: PKCβII 1.6 nM, PKCγ 500 pM, PKCδ 5 nM, PKCθ 500 pM, and PKCζ 500 pM. PKCs were incubated in a 15 μL reaction volume with kinase buffer (20 mM Tris-HCL [pH 7.4], 10 mM MgCl2, 0.25 mM EGTA, 0.1 mg/mL BSA, and 0.15% Triton X-100), 50 nM ULight-labeled CREBtide […] (PerkinElmer, TRF0107, Revvity), and test compound. […] after 60 minutes with 10 μL of 2.5× Stop Solution/Detection Mix containing 20 mM EDTA and 4 nM LANCE Ultra Europium anti–phospho-[…] peptide antibody (PerkinElmer, TRF0200, Revvity). After incubation at 27°C for another 60 minutes, phosphorylation was detected using a FlexStation 3 Microplate Reader (Molecular Devices) in LANCE TR-FRET mode (excitation = 340 nm, emission = 665 nm) and expressed as relative fluorescence units (RFU). The percentage of inhibition was calculated as: (signal without test compound − signal with test compound)/(signal without test compound − signal without ATP) × 100. The Z’ factor for this assay ranged between 0.72 and 0.86.
smiles,measurement,setting,value
N[C@H](CNC(=O)C1(c2ccc(Cl)cc2)CCCC1)c1ccc(C(=O)Nc2ccncc2)cc1 [CP612],logD at 3 h,[1],1.5 ± 0.75
same,logD,[1],1.504
same,Effect on established morphine-withdrawal hyperalgesia,"[2]; male and female mice, CP612 20 mg/kg i.p. 2 weeks after last morphine injection",reversed
same,Duration of reversal of hyperalgesia,[2]; single dose CP612 20 mg/kg i.p.,2 weeks
same,Increase of EC50 for ATP,PKCε; 300 nM CP612,40 fold
same,Kinase activity (% control),"PKCε; [ATP] 0.183 µM, M -8.523, 0.183 µM",47.534 % control and 24.462 % control and 35.552 % control
same,Kinase activity (% control),"PKCε; [ATP] 0.73 µM, M -6, 0.73 µM",0.864 % control and 1.238 % control
same,Kinase activity (% control),"PKCε; [ATP] 2.93 µM, M -5.523, 2.93 µM",0.280 % control and 0.321 % control
same,Kinase activity (% control),"PKCε; [ATP] 2.93 µM, M -6, 2.93 µM",1.498 % control and 2.443 % control
same,Kinase activity (% control),"PKCε; [ATP] 2.93 µM, M -6.523, 2.93 µM",4.077 % control and 4.559 % control
same,Kinase activity (% control),"PKCε; [ATP] 2.93 µM, M -7, 2.93 µM",8.910 % control and 10.659 % control
same,Kinase activity (% control),"PKCε; [ATP] 2.93 µM, M -7.523, 2.93 µM",20.262 % control and 21.135 % control
same,Kinase activity (% control),"PKCε; [ATP] 2.93 µM, M -8, 2.93 µM",38.517 % control and 38.535 % control
same,Kinase activity (% control),"PKCε; [ATP] 2.93 µM, M -8.523, 2.93 µM",63.294 % control and 62.615 % control
same,Kinase activity (% control),"PKCε; [ATP] 11.67 µM, M -6, 11.67 µM",4.132 % control and 3.783 % control
same,Kinase activity (% control),"PKCε; [ATP] 11.67 µM, M -6.523, 11.67 µM",10.586 % control and 9.278 % control
same,Kinase activity (% control),"PKCε; [ATP] 11.67 µM, M -7, 11.67 µM",20.490 % control and 19.346 % control
same,Kinase activity (% control),"PKCε; [ATP] 11.67 µM, M -7.523, 11.67 µM",38.625 % control and 36.759 % control
same,Kinase activity (% control),"PKCε; [ATP] 11.67 µM, M -8, 11.67 µM",63.930 % control and 57.174 % control
same,Kinase activity (% control),"PKCε; [ATP] 11.67 µM, M -8.523, 11.67 µM",75.246 % control and 100.913 % control and 75.385 % control
same,Kinase activity (% control),"PKCε; [ATP] 49 µM, M -6, 49 µM",10.798 % control and 9.001 % control
same,Kinase activity (% control),"PKCε; [ATP] 49 µM, M -6.523, 49 µM",25.250 % control and 20.067 % control
same,Kinase activity (% control),"PKCε; [ATP] 49 µM, M -7, 49 µM",46.048 % control and 35.068 % control
same,Kinase activity (% control),"PKCε; [ATP] 49 µM, M -7.523, 49 µM",52.594 % control and 73.832 % control and 56.661 % control
same,Kinase activity (% control),"PKCε; [ATP] 49 µM, M -8, 49 µM",73.818 % control and 104.476 % control and 73.273 % control
same,Kinase activity (% control),"PKCε; [ATP] 49 µM, M -8.523, 49 µM",102.193 % control and 87.045 % control
same,Kinase activity (% control),"PKCε; [ATP] 187 µM, M -6, 187 µM",22.653 % control and 20.507 % control
same,Kinase activity (% control),"PKCε; [ATP] 187 µM, M -6.523, 187 µM",46.882 % control and 37.693 % control
same,Kinase activity (% control),"PKCε; [ATP] 187 µM, M -7, 187 µM",75.602 % control and 55.920 % control
same,Kinase activity (% control),"PKCε; [ATP] 187 µM, M -7.523, 187 µM",95.087 % control and 100.001 % control and 71.937 % control
same,Kinase activity (% control),"PKCε; [ATP] 187 µM, M -8, 187 µM",104.191 % control and 87.275 % control
same,Kinase activity (% control),"PKCε; [ATP] 187 µM, M -8.523, 187 µM",106.161 % control and 97.914 % control
same,Kinase activity (% control),"PKCε; [ATP] 750 µM, M -5.523, 750 µM",21.316 % control and 15.871 % control
same,Kinase activity (% control),"PKCε; [ATP] 750 µM, M -6, 750 µM",49.150 % control and 51.871 % control
same,Kinase activity (% control),"PKCε; [ATP] 750 µM, M -6.523, 750 µM",85.111 % control and 100.290 % control and 67.168 % control
same,Kinase activity (% control),"PKCε; [ATP] 750 µM, M -7, 750 µM",106.868 % control and 86.984 % control
same,Kinase activity (% control),"PKCε; [ATP] 750 µM, M -7.523, 750 µM",104.196 % control and 100.982 % control
same,Kinase activity (% control),"PKCε; [ATP] 750 µM, M -8, 750 µM",105.985 % control and 104.633 % control
same,Kinase activity (% control),"PKCε; [ATP] 750 µM, M -8.523, 750 µM",106.157 % control and 106.288 % control
same,Mode of inhibition of PKCε,PKCε; rightward shift at higher [ATP],competing with ATP

# From paper PMC12016938, “A small molecule PKCε inhibitor reduces hyperalgesia induced by paclitaxel or opioid withdrawal” (JCI Insight, 2025)
